One series concerns the target T1, mouse mAsbt (Mus musculus, UniProt P70172).
T1 sequence (P70172 1-348): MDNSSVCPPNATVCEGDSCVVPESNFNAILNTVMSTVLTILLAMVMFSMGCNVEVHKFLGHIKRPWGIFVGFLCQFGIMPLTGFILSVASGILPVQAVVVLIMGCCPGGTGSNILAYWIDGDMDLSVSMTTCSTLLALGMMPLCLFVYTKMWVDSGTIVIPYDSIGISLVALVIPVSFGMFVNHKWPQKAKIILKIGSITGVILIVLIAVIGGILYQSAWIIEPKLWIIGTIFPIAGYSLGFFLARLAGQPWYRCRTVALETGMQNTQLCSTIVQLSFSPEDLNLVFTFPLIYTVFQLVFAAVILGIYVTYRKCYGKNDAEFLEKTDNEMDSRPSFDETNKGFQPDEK
Nature of the series: Quantitative uptake of 3-NBD-BA in carrier-expressing HEK293 cells (fluorescence reader). As to conditions: mAsbt-HEK293, 25 μM, 37 °C, +Na+ vs -Na+. On the set-up: stably transfected with the full open reading frames of human NTCP, ASBT, SOAT, OATP1B1, and OATP1B3 as well as mouse mNtcp and mAsbt; expressed in transfected cells. It counts as cell-based. The procedure:
For quantification of the transport activity of the synthesized NBD-BA, all cell lines were seeded on 96 well plates and transport experiments were performed under the same control conditions (-Na^+ control for the SLC10 carriers and nontransfected HEK293 cells for the OATP carriers) as before (Figure ). For each NBD-BA, a substrate concentration of 25 μM was used, and the uptake phase was terminated after 10 min of incubation at 37 °C. […] The transport ratios ranged from 3-fold to 39-fold. In direct comparison, 3α-NBD-TCA (14d) and 3α-NBD-GCA (16d) were transported better than their 3β-analogs 3β-NBD-TCA (14a) and 3β-NBD-GCA (16a), respectively, clearly pointing to a preference for the α-position over the β-position of the 3-NBD-label. In direct comparison between the taurine- or glycine-conjugation of the respective NBD-BA, there was a clear preference for 3α-NBD-GCA (16d) over 3α-NBD-TCA (14d), at least for NTCP and mAsbt, pointing to a favorable substrate recognition for glycine-conjugated NBD-BA.
5 Quantitative uptake experiments with the 3-NBD-BA in HEK293 cells stably expressing the human carriers NTCP, ASBT, SOAT, OATP1B1, and OATP1B3, or the mouse carriers mNtcp and mAsbt. For the SLC10 carriers, all transport experiments were performed in the presence (filled bars) and the absence (hatched bars) of sodium. For the OATP carriers, uptake into carrier-expressing cells (filled bars) was compared to uptake into non-carrier-expressing HEK293 cells (hatched bars). All cell lines were incubated at 37 °C for 10 min with the indicated 3-NBD-BA at 25 μM. Then, cells were washed with PBS and subjected to fluorescence detection. The following fluorescent BA were analyzed: 3α-NBD-TCA (14d), 3β-NBD-TCA (14a), 3α-NBD-GCA (16d), 3β-NBD-GCA (16a), 3β-NBD-TCDCA (14b), 3β-NBD-CDCA (6b), 3β-NBD-DCA (6c), 3α-NBD-CA (6d), and 3β-NBD-CA (6a). Data represent means ± SD of triplicate determinations of representative experiments. […] RFU, relative fluorescence units. TEXT PRINTED IN THE PICTURE: 3α-NBD-TCA (14d): NTCP: 9 X; mNtcp: 30 X; ASBT: 2 X; mAsbt: 14 X | 3ß-NBD-TCA (14a): NTCP: 12 X; mNtcp: 20 X; mAsbt: 18 X | 3α-NBD-GCA (16d): NTCP: 27 X; mNtcp: 26 X; ASBT: 3 X; mAsbt: 39 X | 3ß-NBD-GCA (16a): NTCP: 15 X; mNtcp: 14 X; mAsbt: 5 X | 3ß-NBD-TCDCA (14b): NTCP: 5 X; mNtcp: 3 X; mAsbt: 4 X | 3ß-NBD-CDCA (6b): mNtcp: < 2 X; ASBT: < 2 X; mAsbt: < 2 X; OATP1B1: < 2 X; OATP1B3: < 2 X | 3ß-NBD-DCA (6c): mNtcp: < 2 X; ASBT: < 2 X; mAsbt: < 2 X | 3α-NBD-CA (6d): mNtcp: 2 X; mAsbt: 4 X | 3ß-NBD-CA (6a): NTCP: 2 X; mNtcp: 2 X; mAsbt: 2 X DOUBTS OF THE COPYIST ABOUT THIS PICTURE: The picture prints no panel letters, so the chart titles (NTCP, mNtcp, ASBT, mAsbt, OATP1B1, OATP1B3) are written in front of the values as the target. / Substance labels: the sign after '3' is printed like 'ß' and may be meant as 'β'. / The 'ns' marks and significance asterisks were left out as statistics. The SOAT chart prints only 'ns'.

Series [1] is described as follows: logP(o/w), octanol/water partition. As to conditions: 1:1 mixture of water and 1-octanol, fluorescence detection or liquid scintillation; for logP: 1-octanol/water, LogP(o/w). The procedure: 9 Membrane permeability of the 3-NBD-BA and logP(o/w) values. […] The lipophilic and hydrophilic phases were separated by centrifugation and both phases were analyzed by fluorescence detection or liquid scintillation, respectively.
All NBD-BA were diluted to 1 pM in STB, and […] and emission spectra were measured from 300 to 650 nm (Spark Multimode Microplate, Tecan, Männedorf, Switzerland). […] The [^3H]-CA was generously provided by Prof. Dr. Alan Hofmann, University of California (San Diego, United States).

Several values for one entry are separate records, joined by “and”; a condition that tells them apart may be missing. Identical values can stand only once. Some results are limits rather than exact numbers.

For the compound “7α-Hydroxy-3β-[(7-nitro-2,1,3-benzoxadiazol-4-yl)amino]-5β-cholan-24-oate [6b]”, the “Specific transport ratio mAsbt (25µM/10 min uptake)” value (“Specific transport ratio mAsbt” for short) at mouse mAsbt is recorded as below 2x x-fold.
With “12α-Hydroxy-3β-[(7-nitro-2,1,3-benzoxadiazol-4-yl)amino]-5β-cholan-24-oate [6c]”, at mouse mAsbt, the “Specific transport ratio mAsbt” value is listed as below 2x x-fold. Besides, the “LogP(o/w)” value in series [1] came to 2.147.
A word on the logP: it is a log measure of how a compound divides between an organic and an aqueous phase. Turning to `C[C@H](CCC(=O)O)[C@H]1CC[C@H]2[C@@H]3[C@H](O)C[C@@H]4C[C@@H](Nc5ccc([N+](=O)[O-])c6nonc56)CC[C@]4(C)[C@H]3C[C@H](O)[C@]12C` [6a, 7α,12α-Dihydroxy-3β-[(7-nitro-2,1,3-benzoxadiazol-4-yl)amino]-5β-cholan-24-oate], the “Specific transport ratio mAsbt” value on mouse mAsbt is 2 x-fold and 2x x-fold. Moreover, the logP in series [1] is above 2.
For the compound `C[C@H](CCC(=O)O)[C@H]1CC[C@H]2[C@@H]3[C@H](O)C[C@@H]4C[C@H](Nc5ccc([N+](=O)[O-])c6nonc56)CC[C@]4(C)[C@H]3C[C@H](O)[C@]12C` [6d, 7α,12α-Dihydroxy-3α-[(7-nitro-2,1,3-benzoxadiazol-4-yl)amino]-5β-cholan-24-oate], at mouse mAsbt, the “Specific transport ratio mAsbt” value is 4 x-fold and 4x x-fold. Further, the logP in series [1] stood at 2.8.
For `C[C@H](CCC(=O)NCCS(=O)(=O)[O-])[C@H]1CC[C@H]2[C@@H]3[C@H](O)C[C@@H]4C[C@@H](Nc5ccc([N+](=O)[O-])c6nonc56)CC[C@]4(C)[C@H]3C[C@H](O)[C@]12C.[Na+]` [14a], the “Specific transport ratio mAsbt” value on mouse mAsbt stood at 18x x-fold. Moreover, the logP in series [1] was 0.14.
In the case of `C[C@H](CCC(=O)NCCS(=O)(=O)[O-])[C@H]1CC[C@H]2[C@@H]3[C@H](O)C[C@@H]4C[C@H](Nc5ccc([N+](=O)[O-])c6nonc56)CC[C@]4(C)[C@H]3C[C@H](O)[C@]12C.[Na+]` [14d], on mouse mAsbt, the “Specific transport ratio mAsbt” value stood at 14x x-fold. Besides, in series [1], the logP came to 0.03 and the “LogP(o/w)” value worked out at 0.027.
With `C[C@H](CCC(=O)NCC(=O)O)[C@H]1CC[C@H]2[C@@H]3[C@H](O)C[C@@H]4C[C@@H](Nc5ccc([N+](=O)[O-])c6nonc56)CC[C@]4(C)[C@H]3C[C@H](O)[C@]12C` [16a], at mouse mAsbt, the “Specific transport ratio mAsbt” value amounted to 5x x-fold. In addition, the logP in series [1] was -0.01.
For the compound `C[C@H](CCC(=O)NCC(=O)O)[C@H]1CC[C@H]2[C@@H]3[C@H](O)C[C@@H]4C[C@H](Nc5ccc([N+](=O)[O-])c6nonc56)CC[C@]4(C)[C@H]3C[C@H](O)[C@]12C` [16d], the “Specific transport ratio mAsbt” value at mouse mAsbt was 39x x-fold. Moreover, the logP in series [1] was 0.462.
